Reference: ChEMBL document CHEMBL3991601, “The target landscape of clinical kinase drugs” (Science, 2017)
Calls of active or inactive are those of the source. For most assays here, no stated cut-off is given here; in the data, actives have a measured Kd and inactives only a lower limit.

How the values were obtained:
[1] = target: Tyrosine-protein kinase CSK (Homo sapiens, UniProt P41240)
Focal adhesion kinase 1 = Focal adhesion kinase 1 (Homo sapiens, UniProt Q05397)
[2] = target: Serine/threonine-protein kinase SIK2 (Homo sapiens, UniProt Q9H0K1)
[3] = target: T1, MAP/microtubule affinity-regulating kinase 4 (Homo sapiens, UniProt Q96L34)
T1 sequence (Q96L34 whole entry): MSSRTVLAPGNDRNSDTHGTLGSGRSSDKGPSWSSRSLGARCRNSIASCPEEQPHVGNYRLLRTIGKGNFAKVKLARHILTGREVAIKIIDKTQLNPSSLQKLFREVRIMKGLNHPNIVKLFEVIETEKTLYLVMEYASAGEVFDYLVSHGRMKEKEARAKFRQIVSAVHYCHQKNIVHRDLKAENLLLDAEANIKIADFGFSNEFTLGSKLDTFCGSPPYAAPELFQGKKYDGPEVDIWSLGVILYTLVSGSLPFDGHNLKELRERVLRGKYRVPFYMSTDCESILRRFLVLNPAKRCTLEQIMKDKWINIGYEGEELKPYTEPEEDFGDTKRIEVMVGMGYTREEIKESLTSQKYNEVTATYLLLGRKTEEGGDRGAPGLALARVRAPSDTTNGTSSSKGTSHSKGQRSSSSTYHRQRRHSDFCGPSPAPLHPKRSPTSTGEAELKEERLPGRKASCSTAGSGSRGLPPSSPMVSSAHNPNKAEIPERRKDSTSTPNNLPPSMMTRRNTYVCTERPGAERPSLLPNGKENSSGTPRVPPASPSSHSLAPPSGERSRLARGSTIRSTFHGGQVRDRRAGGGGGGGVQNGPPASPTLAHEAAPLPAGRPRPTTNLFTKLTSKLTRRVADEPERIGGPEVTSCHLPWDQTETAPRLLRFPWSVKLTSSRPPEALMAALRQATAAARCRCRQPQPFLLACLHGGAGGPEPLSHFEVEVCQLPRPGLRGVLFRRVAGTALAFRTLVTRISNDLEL

[4] = target: T2, Mitogen-activated protein kinase 15 (Homo sapiens, UniProt Q8TD08)
T2 sequence (Q8TD08 whole entry): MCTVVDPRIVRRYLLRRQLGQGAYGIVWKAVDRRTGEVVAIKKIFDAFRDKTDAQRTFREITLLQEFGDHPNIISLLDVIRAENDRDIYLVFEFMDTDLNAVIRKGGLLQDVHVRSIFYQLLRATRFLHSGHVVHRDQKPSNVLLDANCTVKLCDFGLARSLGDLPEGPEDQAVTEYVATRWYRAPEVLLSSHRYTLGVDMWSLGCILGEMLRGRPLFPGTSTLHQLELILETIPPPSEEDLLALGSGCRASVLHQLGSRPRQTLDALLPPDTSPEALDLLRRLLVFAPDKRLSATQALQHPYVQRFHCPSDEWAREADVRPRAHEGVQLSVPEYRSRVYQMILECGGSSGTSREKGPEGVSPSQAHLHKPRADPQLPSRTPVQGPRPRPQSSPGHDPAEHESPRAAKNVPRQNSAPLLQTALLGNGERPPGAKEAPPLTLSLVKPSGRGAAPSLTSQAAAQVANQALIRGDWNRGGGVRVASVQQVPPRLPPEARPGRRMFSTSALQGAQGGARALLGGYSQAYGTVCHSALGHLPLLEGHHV

Insulin receptor = Insulin receptor (Homo sapiens, UniProt P06213)
[5] = target: T3, Dual specificity mitogen-activated protein kinase kinase 5 (Homo sapiens, UniProt Q13163)
T3 sequence (Q13163 whole entry): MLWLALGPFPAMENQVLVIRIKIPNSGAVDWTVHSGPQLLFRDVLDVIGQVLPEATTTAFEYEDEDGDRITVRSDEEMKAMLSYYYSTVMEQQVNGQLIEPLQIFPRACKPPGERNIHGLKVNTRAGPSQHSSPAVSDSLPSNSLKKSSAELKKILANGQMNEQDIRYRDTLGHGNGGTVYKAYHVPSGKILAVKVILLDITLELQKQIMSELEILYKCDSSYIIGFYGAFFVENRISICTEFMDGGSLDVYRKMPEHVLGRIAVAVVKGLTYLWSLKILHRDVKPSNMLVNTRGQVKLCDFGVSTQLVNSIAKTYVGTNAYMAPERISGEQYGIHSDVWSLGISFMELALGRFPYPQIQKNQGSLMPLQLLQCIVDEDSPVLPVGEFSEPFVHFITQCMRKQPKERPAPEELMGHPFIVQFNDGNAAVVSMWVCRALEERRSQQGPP

[6] = target: T4, Glycogen phosphorylase, brain form (Homo sapiens, UniProt P11216)
T4 sequence (P11216 whole entry): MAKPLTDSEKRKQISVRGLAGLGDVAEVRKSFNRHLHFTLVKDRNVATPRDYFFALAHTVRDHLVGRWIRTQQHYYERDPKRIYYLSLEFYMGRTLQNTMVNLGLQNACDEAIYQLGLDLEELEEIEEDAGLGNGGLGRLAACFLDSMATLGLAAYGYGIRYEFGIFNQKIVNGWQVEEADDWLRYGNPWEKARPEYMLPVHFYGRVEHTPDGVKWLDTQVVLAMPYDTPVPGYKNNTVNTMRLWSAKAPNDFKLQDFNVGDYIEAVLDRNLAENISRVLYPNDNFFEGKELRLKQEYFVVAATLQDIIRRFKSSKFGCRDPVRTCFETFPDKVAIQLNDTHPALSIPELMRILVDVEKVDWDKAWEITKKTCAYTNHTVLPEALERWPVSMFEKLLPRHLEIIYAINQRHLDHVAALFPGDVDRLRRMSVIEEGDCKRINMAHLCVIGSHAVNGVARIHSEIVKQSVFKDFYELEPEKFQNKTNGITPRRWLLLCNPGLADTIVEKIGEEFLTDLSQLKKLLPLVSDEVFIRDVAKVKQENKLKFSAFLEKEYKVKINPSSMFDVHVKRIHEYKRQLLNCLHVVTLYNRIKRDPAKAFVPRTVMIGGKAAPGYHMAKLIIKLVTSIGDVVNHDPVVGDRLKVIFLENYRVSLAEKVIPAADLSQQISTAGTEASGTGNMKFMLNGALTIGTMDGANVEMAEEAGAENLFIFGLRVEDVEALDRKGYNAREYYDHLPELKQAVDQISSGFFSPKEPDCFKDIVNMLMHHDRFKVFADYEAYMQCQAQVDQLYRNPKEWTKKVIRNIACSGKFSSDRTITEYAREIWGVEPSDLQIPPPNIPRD

[7] = target: Serine/threonine-protein kinase/endoribonuclease IRE2 (Homo sapiens, UniProt Q76MJ5)
[8] = target: Serine/threonine-protein kinase/endoribonuclease IRE1 (Homo sapiens, UniProt O75460)
[9] = target: Serine/threonine-protein kinase SIK3 (Homo sapiens, UniProt Q9Y2K2)

Sequence of Focal adhesion kinase 1 (Q05397 whole entry): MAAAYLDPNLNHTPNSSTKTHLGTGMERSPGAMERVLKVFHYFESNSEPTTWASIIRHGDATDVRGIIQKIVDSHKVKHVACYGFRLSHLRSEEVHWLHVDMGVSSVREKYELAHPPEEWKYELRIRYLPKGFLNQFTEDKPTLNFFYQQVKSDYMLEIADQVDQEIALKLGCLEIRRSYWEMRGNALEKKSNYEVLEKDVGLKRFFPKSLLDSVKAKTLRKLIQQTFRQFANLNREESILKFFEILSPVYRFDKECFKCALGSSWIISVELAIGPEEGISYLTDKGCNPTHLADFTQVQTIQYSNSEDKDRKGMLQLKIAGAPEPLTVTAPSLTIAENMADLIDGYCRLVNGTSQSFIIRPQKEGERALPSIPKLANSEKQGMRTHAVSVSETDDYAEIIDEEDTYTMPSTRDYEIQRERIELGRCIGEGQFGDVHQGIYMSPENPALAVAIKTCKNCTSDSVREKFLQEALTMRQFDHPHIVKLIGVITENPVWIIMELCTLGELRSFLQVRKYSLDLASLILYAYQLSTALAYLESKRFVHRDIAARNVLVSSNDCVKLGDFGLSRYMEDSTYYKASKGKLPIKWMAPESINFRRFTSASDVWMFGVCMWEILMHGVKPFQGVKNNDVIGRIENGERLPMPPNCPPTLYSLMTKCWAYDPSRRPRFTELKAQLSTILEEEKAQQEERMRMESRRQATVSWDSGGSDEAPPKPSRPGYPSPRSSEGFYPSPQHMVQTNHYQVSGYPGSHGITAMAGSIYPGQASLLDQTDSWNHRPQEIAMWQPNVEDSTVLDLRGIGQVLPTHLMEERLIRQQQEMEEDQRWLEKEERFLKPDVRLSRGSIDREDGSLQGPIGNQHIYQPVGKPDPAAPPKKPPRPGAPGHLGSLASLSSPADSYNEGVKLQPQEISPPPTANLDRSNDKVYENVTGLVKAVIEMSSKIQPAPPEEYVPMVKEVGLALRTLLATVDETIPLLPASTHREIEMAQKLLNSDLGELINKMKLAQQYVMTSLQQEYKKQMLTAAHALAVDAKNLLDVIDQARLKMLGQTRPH
Sequence of Serine/threonine-protein kinase SIK2 (Q9H0K1 whole entry): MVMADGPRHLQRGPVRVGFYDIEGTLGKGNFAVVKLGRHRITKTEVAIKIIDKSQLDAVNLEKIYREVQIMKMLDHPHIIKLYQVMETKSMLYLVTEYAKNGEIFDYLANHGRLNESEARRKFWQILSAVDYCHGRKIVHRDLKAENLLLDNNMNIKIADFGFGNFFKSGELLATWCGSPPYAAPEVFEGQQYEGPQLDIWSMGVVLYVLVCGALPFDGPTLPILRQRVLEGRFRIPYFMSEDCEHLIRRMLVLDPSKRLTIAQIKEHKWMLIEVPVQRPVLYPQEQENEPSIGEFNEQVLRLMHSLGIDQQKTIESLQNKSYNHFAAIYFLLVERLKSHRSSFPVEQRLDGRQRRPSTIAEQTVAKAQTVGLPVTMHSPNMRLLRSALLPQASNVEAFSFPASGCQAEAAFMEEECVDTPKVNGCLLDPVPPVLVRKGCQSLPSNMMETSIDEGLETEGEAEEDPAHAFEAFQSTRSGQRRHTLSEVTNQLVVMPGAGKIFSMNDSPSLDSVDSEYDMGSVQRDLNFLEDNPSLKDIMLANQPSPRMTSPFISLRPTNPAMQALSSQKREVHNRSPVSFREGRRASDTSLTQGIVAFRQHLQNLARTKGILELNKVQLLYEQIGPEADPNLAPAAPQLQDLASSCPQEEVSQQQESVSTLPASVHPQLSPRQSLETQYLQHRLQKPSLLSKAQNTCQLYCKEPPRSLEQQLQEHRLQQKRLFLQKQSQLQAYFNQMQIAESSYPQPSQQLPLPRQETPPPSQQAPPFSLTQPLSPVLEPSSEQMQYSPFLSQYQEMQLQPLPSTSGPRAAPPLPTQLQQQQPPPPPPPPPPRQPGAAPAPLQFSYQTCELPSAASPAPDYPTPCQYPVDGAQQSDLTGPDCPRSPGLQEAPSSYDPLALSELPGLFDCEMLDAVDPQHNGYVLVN
Sequence of Serine/threonine-protein kinase/endoribonuclease IRE1 (O75460 whole entry): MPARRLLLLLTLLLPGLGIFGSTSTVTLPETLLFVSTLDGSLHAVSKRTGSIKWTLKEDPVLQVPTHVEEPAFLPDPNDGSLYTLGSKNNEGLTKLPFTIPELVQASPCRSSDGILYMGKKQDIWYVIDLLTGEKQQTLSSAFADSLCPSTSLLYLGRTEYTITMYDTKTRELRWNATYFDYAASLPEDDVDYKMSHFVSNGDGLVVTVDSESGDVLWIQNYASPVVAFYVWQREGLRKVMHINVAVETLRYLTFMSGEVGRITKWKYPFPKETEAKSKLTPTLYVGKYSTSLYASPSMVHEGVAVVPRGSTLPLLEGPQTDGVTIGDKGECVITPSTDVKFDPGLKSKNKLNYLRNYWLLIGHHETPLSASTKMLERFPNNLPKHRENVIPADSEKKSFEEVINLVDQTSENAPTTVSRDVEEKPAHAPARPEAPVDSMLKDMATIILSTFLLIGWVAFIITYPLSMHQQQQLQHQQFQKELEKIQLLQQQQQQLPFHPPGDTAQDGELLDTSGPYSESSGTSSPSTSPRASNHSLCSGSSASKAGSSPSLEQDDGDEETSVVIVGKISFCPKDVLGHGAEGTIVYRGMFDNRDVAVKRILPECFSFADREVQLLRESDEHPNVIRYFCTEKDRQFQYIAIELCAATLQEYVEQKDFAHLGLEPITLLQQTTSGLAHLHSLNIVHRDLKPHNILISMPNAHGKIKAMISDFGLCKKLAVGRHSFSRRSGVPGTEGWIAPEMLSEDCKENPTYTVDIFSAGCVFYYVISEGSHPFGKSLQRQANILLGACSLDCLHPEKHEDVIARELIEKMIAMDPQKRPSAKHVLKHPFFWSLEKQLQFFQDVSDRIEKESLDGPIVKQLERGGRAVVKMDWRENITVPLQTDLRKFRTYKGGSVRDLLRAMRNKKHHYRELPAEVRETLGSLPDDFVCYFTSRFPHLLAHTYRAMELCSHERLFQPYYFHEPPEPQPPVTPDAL
Sequence of Serine/threonine-protein kinase/endoribonuclease IRE2 (Q76MJ5 whole entry): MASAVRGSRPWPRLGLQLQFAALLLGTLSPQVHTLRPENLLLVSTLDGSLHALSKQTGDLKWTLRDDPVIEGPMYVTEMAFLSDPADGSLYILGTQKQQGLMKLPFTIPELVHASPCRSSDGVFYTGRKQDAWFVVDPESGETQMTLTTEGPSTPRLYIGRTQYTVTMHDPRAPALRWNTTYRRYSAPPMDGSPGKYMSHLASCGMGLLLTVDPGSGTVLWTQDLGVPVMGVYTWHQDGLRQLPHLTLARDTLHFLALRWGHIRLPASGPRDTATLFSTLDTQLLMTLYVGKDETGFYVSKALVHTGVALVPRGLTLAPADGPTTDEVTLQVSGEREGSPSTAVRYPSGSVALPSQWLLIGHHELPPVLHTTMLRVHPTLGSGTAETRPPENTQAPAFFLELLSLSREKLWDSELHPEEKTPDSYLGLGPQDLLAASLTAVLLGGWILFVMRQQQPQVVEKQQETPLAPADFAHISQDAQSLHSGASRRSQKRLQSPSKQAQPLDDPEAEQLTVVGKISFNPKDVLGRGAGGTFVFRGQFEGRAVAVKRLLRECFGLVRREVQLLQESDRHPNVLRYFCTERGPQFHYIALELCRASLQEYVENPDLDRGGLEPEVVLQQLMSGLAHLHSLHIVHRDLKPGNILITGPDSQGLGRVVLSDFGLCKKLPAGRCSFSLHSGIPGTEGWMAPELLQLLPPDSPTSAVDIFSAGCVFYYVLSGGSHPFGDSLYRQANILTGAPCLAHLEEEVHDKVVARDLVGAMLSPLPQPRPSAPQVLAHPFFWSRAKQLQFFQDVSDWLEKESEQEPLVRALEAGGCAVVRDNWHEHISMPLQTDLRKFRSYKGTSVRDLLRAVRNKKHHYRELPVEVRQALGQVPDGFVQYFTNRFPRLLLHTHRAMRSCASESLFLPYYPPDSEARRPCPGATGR

Structure (SMILES)	Kd [1]	Kd (Focal adhesion kinase 1)	Kd [2]	Kd [3]	Kd (Insulin receptor)	Kd [5]	Kd [6]	Kd [7]	Kd [8]	Kd [9]	Kd [4]
N#CC1(c2ccc(NC(=O)c3cccnc3NCc3ccncc3)cc2)CCCC1 [RIVOCERANIB]	> 30 µM (inactive)	> 30 µM (inactive)	> 30 µM (inactive)	> 30 µM (inactive)	> 30 µM (inactive)	> 30 µM (inactive)	> 30 µM (inactive)	> 30 µM (inactive)	> 30 µM (inactive)	> 30 µM (inactive)	> 30 µM (inactive)
O=c1[nH]ccc2cc(OC3CCNCC3)ccc12 [SAR-407899 FREE BASE]	> 30 µM (inactive)	> 30 µM (inactive)	> 30 µM (inactive)	> 30 µM (inactive)	> 30 µM (inactive)	> 30 µM (inactive)	> 30 µM (inactive)	> 30 µM (inactive)	> 30 µM (inactive)	> 30 µM (inactive)	> 30 µM (inactive)
Cn1cc(-c2cnn3c(N)c(Br)c([C@@H]4CCCNC4)nc23)cn1 [SCH-900776]	> 30 µM (inactive)	> 30 µM (inactive)	0.27 µM (active)	> 30 µM (inactive)	> 30 µM (inactive)	0.609 µM (active)	> 30 µM (inactive)	> 30 µM (inactive)	> 30 µM (inactive)	> 30 µM (inactive)	> 30 µM (inactive)
O=C(Cc1ccc(-c2ccc(OCCN3CCOCC3)cc2)cn1)NCc1ccccc1 [TIRBANIBULIN]	> 30 µM (inactive)	> 30 µM (inactive)	> 30 µM (inactive)	> 30 µM (inactive)	> 30 µM (inactive)	> 30 µM (inactive)	> 30 µM (inactive)	> 30 µM (inactive)	> 30 µM (inactive)	> 30 µM (inactive)	> 30 µM (inactive)
C[C@@H](NC(=O)c1ncnc(N)c1Cl)c1ncc(C(=O)Nc2cc(C(F)(F)F)c(Cl)cn2)s1 [TOVORAFENIB]	> 30 µM (inactive)	> 30 µM (inactive)	> 30 µM (inactive)	> 30 µM (inactive)	> 30 µM (inactive)	> 30 µM (inactive)	> 30 µM (inactive)	> 30 µM (inactive)	> 30 µM (inactive)	> 30 µM (inactive)	> 30 µM (inactive)
Cc1cc(Nc2ncnc3ccc(NC4=NC(C)(C)CO4)cc23)ccc1Oc1ccn2ncnc2c1 [TUCATINIB]	> 30 µM (inactive)	> 30 µM (inactive)	> 30 µM (inactive)	> 30 µM (inactive)	> 30 µM (inactive)	> 30 µM (inactive)	> 30 µM (inactive)	> 30 µM (inactive)	> 30 µM (inactive)	> 30 µM (inactive)	> 30 µM (inactive)

Continued, in another order:

Kd [1]	Kd (Focal adhesion kinase 1)	Kd [2]	Kd [3]	Kd (Insulin receptor)	Kd [5]	Kd [6]	Kd [7]	Kd [8]	Kd [9]	Structure (SMILES)	Kd [4]
> 30 µM (inactive)	> 30 µM (inactive)	> 30 µM (inactive)	> 30 µM (inactive)	> 30 µM (inactive)	> 30 µM (inactive)	> 30 µM (inactive)	> 30 µM (inactive)	> 30 µM (inactive)	> 30 µM (inactive)	CO[C@H]1C[C@@H]2CC[C@@H](C)[C@@](O)(O2)C(=O)C(=O)N2CCCC[C@H]2C(=O)O[C@H]([C@H](C)C[C@@H]2CC[C@@H](OP(C)(C)=O)[C@H](OC)C2)CC(=O)[C@H](C)/C=C(\C)[C@@H](O)[C@@H](OC)C(=O)[C@H](C)C[C@H](C)/C=C/C=C/C=C/1C [RIDAFOROLIMUS]	> 30 µM (inactive)
> 30 µM (inactive)	> 30 µM (inactive)	> 30 µM (inactive)	> 30 µM (inactive)	> 30 µM (inactive)	> 30 µM (inactive)	> 30 µM (inactive)	> 30 µM (inactive)	> 30 µM (inactive)	> 30 µM (inactive)	CO[C@H]1C[C@@H]2CC[C@@H](C)[C@@](O)(O2)C(=O)C(=O)N2CCCC[C@H]2C(=O)O[C@H]([C@H](C)C[C@@H]2CC[C@@H](O)[C@H](OC)C2)CC(=O)[C@H](C)/C=C(\C)[C@@H](O)[C@@H](OC)C(=O)[C@H](C)C[C@H](C)/C=C/C=C/C=C/1C [SIROLIMUS]	> 30 µM (inactive)
> 30 µM (inactive)	0.264 µM (active)	0.115 µM (active)	1.03 µM (active)	> 30 µM (inactive)	6.8 µM (active)	> 30 µM (inactive)	> 30 µM (inactive)	> 30 µM (inactive)	> 30 µM (inactive)	CCS(=O)(=O)c1cccc(-c2cc(C(=O)NC3CCN(C)CC3)c(C)c3[nH]c4ncc(C)cc4c23)c1 [TAK-901]	> 30 µM (inactive)
> 30 µM (inactive)	> 30 µM (inactive)	> 30 µM (inactive)	> 30 µM (inactive)	> 30 µM (inactive)	65.7 µM (active)	> 30 µM (inactive)	> 30 µM (inactive)	> 30 µM (inactive)	> 30 µM (inactive)	COc1cc2c(Nc3ccc(Cl)c(Cl)c3F)ncnc2cc1OC[C@@H]1C[C@@H]2CN(C)C[C@@H]2C1 [TESEVATINIB]	> 30 µM (inactive)
> 30 µM (inactive)	> 30 µM (inactive)	> 30 µM (inactive)	> 30 µM (inactive)	> 30 µM (inactive)	> 30 µM (inactive)	> 30 µM (inactive)	> 30 µM (inactive)	> 30 µM (inactive)	> 30 µM (inactive)	O=C1NC(=O)[C@@H](c2cn3c4c(cccc24)CCC3)[C@@H]1c1c[nH]c2ccccc12 [TIVANTINIB]	> 30 µM (inactive)
